Patent publication US12208088B2 (Genentech, Inc., priority 2018, dated 2025)

molecular target: HPK1 (Homo sapiens (Human), UniProt Q92918); experiment: HPK1 Lantha binding assay ("Lanth"); details: binding assays; Morrison Ki fit
Description: Example B2: HPK1 Lantha Binding Assay (“Lanth”)
Procedure: I. Compound Dilution:
The compounds to be tested were diluted by preparing 12.5 uL/well of 5 mM compound (100×) in columns 2 and 13 and 10 ul/well of DMSO in columns 3-12, 14-23, and wells A1-H1 and I24-P24 of the compound plate using a Bravo liquid handling platform. For the reference compound, the top concentration was 1 mM. To the plate was added 10 ul 2 mM staurosporine in wells J1-P1 and A24-H24. A 11 point 5-fold compound serial dilution was performed using the Bravo liquid handling platform. From the plate were transferred 2.5 ul of the solutions from column 2 and column 13 to the 10 ul of DMSO in columns 3 and 14 & so on. The compound plate was centrifuged at 2500 rpm for 1 min. From the compound plate was transferred 80 nl of the compounds into an assay plate using the Echo liquid handler system. One compound plate makes two assay plates. Each assay plate is sealed and stored in an N2 cabinet.
The following assay concentrations and times were used: 2 nM HPK1, 2 nM Eu-Anti-GST Ab, and 15 nM Tracer222, with 60 min incubation time.
III. HPK Lantha Binding Assay:
For the binding assay, 4 ul 2×HPK1 and Eu-anti-GST antibody were added to each well of the assay plate using a Multidrop reagent dispenser. The solutions were incubated in a 23 C incubator for 1 h. To each well of the assay plate was added 4 ul 2× Tracer-222 using a Multidrop reagent dispenser. The solutions were again incubated in a 23 C incubator for 1 h. The results of the assay were read using an Envision plate reader with the following parameters: TR_FRET, 340 ex/615 and 665em; 100 usec Delay; and 200 usec integration.
Compound Ki was analyzed using Morrison ki fit model in XL-fit • a. fit=(1−((((E+x)+(Ki*(1+(S/Kd))))−(((((E+x)+(Ki*(1+(S/Kd))))^2)−((4*E)*x))^0.5))/(2*E))) • res=(y−fit) • b. Parameters: • E=enzyme concentration • S=Tracer222 concentration, Kd=Tracer222 Kd • All measurements reported using the same units (uM)
Exemplary compounds were tested in the binding assays.

HPK1, sequence (Q92918 1-346 limits assumed): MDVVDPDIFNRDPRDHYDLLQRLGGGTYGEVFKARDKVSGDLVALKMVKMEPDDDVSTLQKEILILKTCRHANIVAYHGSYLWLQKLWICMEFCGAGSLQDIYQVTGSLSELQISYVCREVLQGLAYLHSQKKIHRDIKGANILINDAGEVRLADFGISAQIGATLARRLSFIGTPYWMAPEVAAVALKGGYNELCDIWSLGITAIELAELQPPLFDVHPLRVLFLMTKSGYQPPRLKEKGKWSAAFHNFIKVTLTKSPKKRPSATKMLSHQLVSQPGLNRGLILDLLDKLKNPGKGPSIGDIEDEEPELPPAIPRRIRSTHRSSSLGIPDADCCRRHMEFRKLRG

How did the Ki turn out when “1-(3-(1′,2′-Dihydrospiro[cyclopropane-1,3′-pyrrolo[2,3-b]pyridin]-5′-yl)phenyl)piperazin-2-one [Compound 41]” was run?
The Ki was 0.103 µM.

O=C1NCCC1c1nc2ccc(-c3cnc4c(c3Cl)C3(CC3)CN4)cc2[nH]1 (racemic) [Compound 283, (±)-3-(6-(4′-Chloro-1′,2′-dihydrospiro[cyclopropane-1,3′-pyrrolo[2,3-b]pyridin]-5′-yl)-1H-benzo[d]imidazol-2-yl)pyrrolidin-2-one] was tested. Which Ki did it give?
The Ki was 0.0742 µM.

CO[C@@H]1CC[C@@]2(CNc3ncc(-c4ccc(N)c(C(=O)N(C)C)c4F)c(Cl)c32)C1 (relative stereo) [Compound 81a, 6-Amino-3-((1R,3R)-4′-chloro-3-methoxy-1′,2′-dihydrospiro[cyclopentane-1,3′-pyrrolo[2,3-b]pyridin]-5′-yl)-2-fluoro-N,N-dimethylbenzamide] was tested. Which Ki did it give?
Its Ki is 0.0396 µM.

CO[C@H]1CC[C@@]2(CNc3ncc(-c4ccc(N)c(C(=O)N(C)C)c4F)c(Cl)c32)C1 (relative stereo) [Compound 81c, 6-Amino-3-((1R,3S)-4′-chloro-3-methoxy-1′,2′-dihydrospiro[cyclopentane-1,3′-pyrrolo[2,3-b]pyridin]-5′-yl)-2-fluoro-N,N-dimethylbenzamide] was tested. Which Ki did it give?
The Ki was 0.0177 µM.

How did the Ki turn out when CN(C)C(=O)c1c(N)ccc(-c2cnc3c(c2Cl)[C@]2(CC[C@](C)(O)C2)CN3)c1F (relative stereo) [Compound 82a, 6-Amino-3-((1R,3S)-4′-chloro-3-hydroxy-3-methyl-1′,2′-dihydrospiro[cyclopentane-1,3′-pyrrolo[2,3-b]pyridin]-5′-yl)-2-fluoro-N,N-dimethylbenzamide] was run?
Its Ki is 0.00812 µM.

Which Ki does the source give for CN(C)C(=O)c1c(N)ccc(-c2cnc3c(c2Cl)[C@]2(CC[C@@H](C(N)=O)C2)CN3)c1F (relative stereo) [Compound 84a, (1R,3R)-5′-(4-amino-3-(dimethylcarbamoyl)-2-fluorophenyl)-4′-chloro-1′,2′-dihydrospiro[cyclopentane-1,3′-pyrrolo[2,3-b]pyridine]-3-carboxamide] here?
Its Ki is 0.0259 µM.

With CN(C)C(=O)c1c(N)ccc(-c2cnc3c(c2Cl)[C@]2(CC[C@H](C(N)=O)C2)CN3)c1F (relative stereo) [Compound 84c, (1R,3S)-5′-(4-amino-3-(dimethylcarbamoyl)-2-fluorophenyl)-4′-chloro-1′,2′-dihydrospiro[cyclopentane-1,3′-pyrrolo[2,3-b]pyridine]-3-carboxamide] as the compound, how does the Ki read?
The Ki was 0.00207 µM.

Which Ki does the source give for C[C@H]1C[C@@]12CNc1ncc(-c3ccc(N)c(C(=O)N(C)C)c3F)cc12 (relative stereo) [Compound 86a, 6-Amino-2-fluoro-N,N-dimethyl-3-((1R,2S)-2-methyl-1′,2′-dihydrospiro[cyclopropane-1,3′-pyrrolo[2,3-b]pyridin]-5′-yl)benzamide] here?
Its Ki is 0.0079 µM.

How did the Ki turn out when CN(C)C(=O)c1c(N)ccc(-c2cnc3c(c2Cl)[C@]2(CC[C@H](n4nccn4)C2)CN3)c1F (relative stereo) [Compound 89a, 6-Amino-3-((1R,3S)-4′-chloro-3-(2H-1,2,3-triazol-2-yl)-1′,2′-dihydrospiro[cyclopentane-1,3′-pyrrolo[2,3-b]pyridin]-5′-yl)-2-fluoro-N,N-dimethylbenzamide] was run?
Its Ki is 0.006 µM.

For CN(C)C(=O)c1c(N)ccc(-c2cnc3c(c2Cl)[C@]2(CC[C@H](C#N)C2)CN3)c1F (relative stereo) [Compound 91a, 6-Amino-3-((1R,3S)-4′-chloro-3-cyano-1′,2′-dihydrospiro[cyclopentane-1,3′-pyrrolo[2,3-b]pyridin]-5′-yl)-2-fluoro-N,N-dimethylbenzamide], which Ki is on record?
The Ki was 0.00553 µM.

CNC(=O)[C@H]1CC[C@@]2(CNc3ncc(-c4ccc(N)c(C(=O)N(C)C)c4F)c(Cl)c32)C1 (relative stereo) [Compound 98a, (1R,3S)-5′-(4-Amino-3-(dimethylcarbamoyl)-2-fluorophenyl)-4′-chloro-N-methyl-1′,2′-dihydrospiro[cyclopentane-1,3′-pyrrolo[2,3-b]pyridine]-3-carboxamide] was tested. Which Ki did it give?
The Ki was 0.0756 µM.

CN(C)C(=O)c1c(N)ccc(-c2cnc3c(c2Cl)[C@]2(CC[C@H](C(=O)NCCO)C2)CN3)c1F (relative stereo) [Compound 106a, (1R,3S)-5′-(4-Amino-3-(dimethylcarbamoyl)-2-fluorophenyl)-4′-chloro-N-(2-hydroxyethyl)-1′,2′-dihydrospiro[cyclopentane-1,3′-pyrrolo[2,3-b]pyridine]-3-carboxamide] was tested. Which Ki did it give?
Its Ki is 0.0236 µM.

Cc1noc([C@H]2CC[C@@]3(CNc4ncc(-c5ccc(N)c(C(=O)N(C)C)c5F)c(Cl)c43)C2)n1 (relative stereo) [Compound 108a, 6-Amino-3-((1R,3S)-4′-chloro-3-(3-methyl-1,2,4-oxadiazol-5-yl)-1′,2′-dihydrospiro[cyclopentane-1,3′-pyrrolo[2,3-b]pyridin]-5′-yl)-2-fluoro-N,N-dimethylbenzamide] was tested. Which Ki did it give?
The Ki was 0.00827 µM.

How did the Ki turn out when CN(C)C(=O)c1c(N)ccc(-c2cnc3c(c2Cl)[C@]2(CC[C@@](O)(CC#N)C2)CN3)c1F (relative stereo) [Compound 109c, 6-Amino-3-((1R,3S)-4′-chloro-3-(cyanomethyl)-3-hydroxy-1′,2′-dihydrospiro[cyclopentane-1,3′-pyrrolo[2,3-b]pyridin]-5′-yl)-2-fluoro-N,N-dimethylbenzamide] was run?
Its Ki is 0.0325 µM.

Cc1cnn([C@H]2CC[C@@]3(CNc4ncc(-c5ccc(N)c(C(=O)N(C)C)c5F)c(Cl)c43)C2)n1 (relative stereo) [Compound 114a, 6-Amino-3-((1R,3S)-4′-chloro-3-(4-methyl-2H-1,2,3-triazol-2-yl)-1′,2′-dihydrospiro[cyclopentane-1,3′-pyrrolo[2,3-b]pyridin]-5′-yl)-2-fluoro-N,N-dimethylbenzamide] was tested. Which Ki did it give?
The Ki was 0.00284 µM.

CN(C)C(=O)c1c(N)ccc(-c2cnc3c(c2Cl)[C@]2(CC[C@H](N4CCNC4=O)C2)CN3)c1F (relative stereo) [Compound 115a, 6-Amino-3-((1R,3S)-4′-chloro-3-(2-oxoimidazolidin-1-yl)-1′,2′-dihydrospiro[cyclopentane-1,3′-pyrrolo[2,3-b]pyridin]-5′-yl)-2-fluoro-N,N-dimethylbenzamide] was tested. Which Ki did it give?
Its Ki is 0.023 µM.

How did the Ki turn out when CN(C)C(=O)c1c(N)ccc(-c2cnc3c(c2Cl)[C@]2(CC[C@@](O)(Cn4cncn4)C2)CN3)c1F (relative stereo) [Compound 116a] was run?
Its Ki is 0.153 µM.

With CN(C)C(=O)c1c(N)ccc(-c2cnc3c(c2Cl)[C@]2(CC[C@@](O)(Cn4ccnc4)C2)CN3)c1F (relative stereo) [Compound 117a, 3-((1R,3S)-3-((1H-Imidazol-1-yl)methyl)-4′-chloro-3-hydroxy-1′,2′-dihydrospiro[cyclopentane-1,3′-pyrrolo[2,3-b]pyridin]-5′-yl)-6-amino-2-fluoro-N, N-dimethylbenzamide] as the compound, how does the Ki read?
The Ki was 0.247 µM.

For CN(C)C(=O)c1c(N)ccc(-c2cnc3c(c2Cl)[C@]2(CC[C@H](n4cnc(N)n4)C2)CN3)c1F (relative stereo) [Compound 119a, 6-Amino-3-((1R,3S)-3-(3-amino-1H-1,2,4-triazol-1-yl)-4′-chloro-1′,2′-dihydrospiro[cyclopentane-1,3′-pyrrolo[2,3-b]pyridin]-5′-yl)-2-fluoro-N,N-dimethylbenzamide], which Ki is on record?
The Ki was 0.0768 µM.

CN(C)C(=O)c1c(N)ccc(-c2cnc3c(c2Cl)[C@]2(CC[C@H](N4CCOCC4)C2)CN3)c1F (relative stereo) [Compound 120a, 6-Amino-3-((1R,3S)-4′-chloro-3-morpholino-1′,2′-dihydrospiro[cyclopentane-1,3′-pyrrolo[2,3-b]pyridin]-5′-yl)-2-fluoro-N,N-dimethylbenzamide] was tested. Which Ki did it give?
Its Ki is 0.479 µM.

CN(C)C(=O)c1c(N)ccc(-c2cnc3c(c2Cl)[C@]2(CC[C@H](N4CCCC4)C2)CN3)c1F (relative stereo) [Compound 121a, 6-Amino-3-((1R,3S)-4′-chloro-3-(pyrrolidin-1-yl)-1′,2′-dihydrospiro[cyclopentane-1,3′-pyrrolo[2,3-b]pyridin]-5′-yl)-2-fluoro-N,N-dimethylbenzamide] was tested. Which Ki did it give?
Its Ki is 0.381 µM.

With CN(C)C(=O)c1c(N)ccc(-c2cnc3c(c2Cl)[C@]2(CC[C@H](N4CCOC4=O)C2)CN3)c1F (relative stereo) [Compound 124a, 6-Amino-3-((1R,3S)-4′-chloro-3-(2-oxooxazolidin-3-yl)-1′,2′-dihydrospiro[cyclopentane-1,3′-pyrrolo[2,3-b]pyridin]-5′-yl)-2-fluoro-N,N-dimethylbenzamide] as the compound, how does the Ki read?
The Ki was 0.035 µM.

Which Ki does the source give for Cc1cnn([C@H]2CC[C@@]3(CNc4ncc(-c5ccc(N)c(C(=O)N(C)C)c5F)c(Cl)c43)C2)c1 (relative stereo) [Compound 125a, 6-Amino-3-((1R,3S)-4′-chloro-3-(4-methyl-1H-pyrazol-1-yl)-1′,2′-dihydrospiro[cyclopentane-1,3′-pyrrolo[2,3-b]pyridin]-5′-yl)-2-fluoro-N,N-dimethylbenzamide] here?
The Ki was 0.00356 µM.
